From patent US12006332B2, “Aminopyrimidine derivatives as phosphatidylinositol phosphate kinase inhibitors” (HiberCell, Inc., priority 2019, dated 2024)
pEC50, pIC50: −log10 of the molar value.

How the values were obtained:
[1] = system: MOLM-16; assay: MOLM-16 EC50 assay; format: cell-based; conditions: MOLM16
[2] = target: T1, PIP4K2 B (Homo sapiens, UniProt P78356); assay: Kinase Assay-PIP4K2 B (Transcreener FI); format: biochemical
T1 construct: made in house; host or cells: E. coli
T1 sequence (P78356 1-416): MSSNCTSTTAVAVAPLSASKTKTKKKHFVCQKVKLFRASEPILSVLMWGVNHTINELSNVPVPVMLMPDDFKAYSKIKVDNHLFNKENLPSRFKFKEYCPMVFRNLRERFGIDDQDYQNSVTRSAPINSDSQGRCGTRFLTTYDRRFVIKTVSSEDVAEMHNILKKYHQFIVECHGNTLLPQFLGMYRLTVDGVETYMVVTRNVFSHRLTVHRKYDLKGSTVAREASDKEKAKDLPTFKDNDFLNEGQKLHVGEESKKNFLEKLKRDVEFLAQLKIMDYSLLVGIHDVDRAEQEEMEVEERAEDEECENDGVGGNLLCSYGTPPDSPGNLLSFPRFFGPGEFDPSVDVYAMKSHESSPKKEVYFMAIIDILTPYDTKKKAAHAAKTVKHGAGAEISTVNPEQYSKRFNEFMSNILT
Description: GST tagged PIP4KtypeIIA and B enzymes were overexpressed in E. Coli and purified to >80% homogeneity. Phosphatidyl inositol-5-phosphate (PI5P, Cat. #850152, Avanti Polar Lipids Inc.) was used as the lipid substrate and phosphatidyl ethanolamine (DOPE 18:1, Cat. #850725, Avanti Polar Lipids Inc.) was used as the carrier lipid for assays. Ultrapure ATP and GTP was purchased from Bellbrooke Labs. ADP Glo reagents were obtained from Promega. Transcreener FI reagent was obtained from Bellbrooke labs.
• 1. HEPES buffer mix: 200 mM HEPES pH 7.4, 50 mM MgCl2, 0.05% v/v triton X 100 • 2. HNE buffer: 20 mM HEPES, pH 7.4, 100 mM NaCl, 0.5 mM EGTA • 3. H:E buffer: 30 mM HEPES, pH 7.4, 1 mM EGTA
GST-tagged PIP4KtypeIIB (3.4 μl, 2.77 mg/mL) was diluted to 5 mL using HNE buffer to yield 5× enzyme stock (25 nM)
Lipid Preparation: In a 10 mL pyrex glass vial, […] were suspended in 2.5 mL of HEPES buffer mix and 2.5 mL of H:E buffer. The contents were mixed and sonicated for 3 min to yield a translucent lipid stock.
Compound Preparation: Compounds were stored as 5 mM stocks in neat DMSO as room temperature in glass vials. 5 mM stocks were diluted to 2 mM and then serially diluted (3×) in neat DMSO in 96 well polypropylene plates. From the serially diluted stocks, 3 μL was delivered into 250 μL of 25% DMSO (in water) to generate 5× compound stocks. Typically, the highest compound conc. was 24 μM.
The assay volume was kept at 25 μL. To each well of the reaction plate, 10 μL of lipid stock (1:1 ratio PI5P:DOPE) was delivered. This was followed by the addition of 5 μL of compound in 25% DMSO. Then, to each well, 5 μL of 25 nM (5×) typeIIB enzyme was delivered. The contents were mixed well and incubated for 1 h at 27° C. After 1 h, reaction was initiated by adding 5 μL of 500 μM GTP and the contents were mixed well with a multi-channel pipetteman. The final concentration of the reagents are as follows: 50 mM HEPES, pH 7.3, 10 mM MgCl2, 20 mM NaCl, 0.01% v/v triton-X100, 5% DMSO, 100 μM GTP, 80 μM (2 μg) PI5P, 2 μg DOPE, and 5 nM PIP4KIIB Typically, the highest conc. of compounds was 4.8 μM and the lowest conc. was 0.
After 2 h, the reaction was quenched by adding 25 μL of transcreener FI reagent. The contents were incubated at rt for 1 h and the Fluorescence (Ex: 584 Em: 623) was read using Molecular Devices Paradigm plate reader. […] The blanks were averaged and subtracted from all other wells. Using a calibration curve, RFU was converted to μM GDP (product). IC50 was calculated by plotting the residual activity (expressed as % No inhibitor control) vs. log [Inh. conc.].

[3] = target: T2, PIP4K2A (Homo sapiens, UniProt P48426); assay: Kinase Assay-PIP4K2 A (ADP-Glo); format: biochemical
T2 construct: made in house; host or cells: E. coli
T2 sequence (P48426 1-406): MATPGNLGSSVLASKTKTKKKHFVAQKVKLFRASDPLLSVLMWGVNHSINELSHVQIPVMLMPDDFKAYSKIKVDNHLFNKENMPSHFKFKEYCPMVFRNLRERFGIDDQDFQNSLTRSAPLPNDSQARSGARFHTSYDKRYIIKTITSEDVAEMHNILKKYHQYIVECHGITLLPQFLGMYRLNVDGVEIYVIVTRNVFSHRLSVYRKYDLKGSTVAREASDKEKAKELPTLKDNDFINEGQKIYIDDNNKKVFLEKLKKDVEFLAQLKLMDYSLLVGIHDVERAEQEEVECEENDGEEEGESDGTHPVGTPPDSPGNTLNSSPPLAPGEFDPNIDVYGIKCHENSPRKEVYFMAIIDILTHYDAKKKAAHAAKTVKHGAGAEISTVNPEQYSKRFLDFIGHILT
Procedure: Dilution series of the compounds were prepared in DMSO at 100 times the final assay concentration (n1=n0/3 in 10 points). The compounds were further diluted to three times the assay concentration in assay buffer (20 mM MOPS pH 7.2, 25 mM magnesium chloride, 0.005% Tween 20). 6 μL of the diluted compounds were added to a 384 well assay plate followed by 9 μL of a mix consisting of 4 nM PIP4K2A (full length protein, SignalChem) and 100 μM PI(5)P diC8 (Tebu-Bio). Enzyme and compounds were pre-incubated at room temperature for 15 minutes.
Then 3 μL of a solution containing 60 μM ATP (Promega) in assay buffer was added to the wells containing compound and enzyme and mixing was performed by pipetting several times. The reaction was incubated at room temperature for 1 h. Then 18 μL of ADP-Glo™ Reagent (Promega) was added to stop the kinase reaction and deplete the unconsumed ATP, mixing was performed by pipetting several times. The plate was incubated at room temperature for 40 minutes before addition of 36 μL of Kinase Detection Reagent (Promega) to convert ADP to ATP and introduce luciferase and luciferin to detect ATP. The reaction was incubated at room temperature for 40 minutes before the luminescence was measured in a in a Victor 3V 1420 multilabel counter (Perkin Elmer).
Percent inhibition of the compounds as compared to dimethyl sulfoxide treated control samples was calculated. Compound concentration versus percent inhibition were fitted to generate IC50 values. […]

| pEC50 [1] | pIC50 [2] | pIC50 [3] | Structure (SMILES) |
| --- | --- | --- | --- |
| 7.00 to 8.00 | 7.00 to 8.00 | 7.00 to 8.00 | COc1nc(Nc2cncc(N3CC[C@@H](N(C)C)C3)c2)ncc1-c1ccc(-c2nnccc2C)cc1 [Compound 34, N-{5-[(3R)-3-(dimethylamino)pyrrolidin-1-yl]pyridin-3-yl}-4-methoxy-5-[4-(4-methylpyridazin-3-yl)phenyl]pyrimidin-2-amine] |
| 6.00 to 7.00 | 8.00 to 9.00 | 8.00 to 9.00 | CC1(C#N)CN(c2nc(Nc3cnc4c(c3)N3C(=O)CC[C@H]3CO4)ncc2-c2ccc(N3CCCC3=O)cc2)C1 [Compound 10, 3-methyl-1-(2-{[(6S)-3-oxo-8-oxa-2,10-diazatricyclo[7.4.0.0^2,6]trideca-1(13),9,11-trien-12-yl]amino}-5-[4-(2-oxopyrrolidin-1-yl)phenyl]pyrimidin-4-yl)azetidine-3-carbonitrile] |
| 7.00 to 8.00 | 7.00 to 8.00 | 7.00 to 8.00 | COc1nc(Nc2cncc(N3CC[C@H](N(C)C)C3)c2)ncc1-c1ccc(-c2nnccc2C)cc1 [Compound 37, N-{5-[(3S)-3-(dimethylamino)pyrrolidin-1-yl]pyridin-3-yl}-4-methoxy-5-[4-(4-methylpyridazin-3-yl)phenyl]pyrimidin-2-amine] |

More lines, now with the values behind:

| Structure (SMILES) | pEC50 [1] | pIC50 [2] | pIC50 [3] |
| --- | --- | --- | --- |
| COc1nc(Nc2cnc3c(c2)N(C(=O)OCCN(C)C)CCO3)ncc1-c1ccc(N2CCCC2=O)cc1 [Compound 5, 2-(dimethylamino)ethyl 7-({4-methoxy-5-[4-(2-oxopyrrolidin-1-yl)phenyl]pyrimidin-2-yl}amino)-1H,2H,3H-pyrido[2,3-b][1,4]oxazine-1-carboxylate] | 7.00 to 8.00 | 8.00 to 9.00 | 8.00 to 9.00 |
| CN(c1nc(Nc2cnc3c(c2)N2C(=O)CC[C@H]2CO3)ncc1-c1ccc(N2CCCC2=O)cc1)[C@H]1CCOC1 [Compound 2, (6S)-12-[(4-{methyl[(3S)-oxolan-3-yl]amino}-5-[4-(2-oxopyrrolidin-1-yl)phenyl]pyrimidin-2-yl)amino]-8-oxa-2,10-diazatricyclo[7.4.0.0^2,6]trideca-1(13),9,11-trien-3-one] | < 6.00 | 8.00 to 9.00 | ≥ 9.00 |
